Source: patent publication US4435570A, “5-(Phenyl or benzyl amino)methyl-pyrrolo[2,3-d]pyrimidin-4-one” (Takeda Chemical Industries, Ltd., priority 1981, dated 1984)
≈ marks a conversion by molar mass, not a printed value.

What was measured:
[1] = test system: L5178Y cells (tumor cells); assay: Inhibitory effect upon the multiplication of tumor cells; format: cell-based; conditions: RPMI 1640 medium+10% fetal calf serum, 48 hours, 37° C.; for IC50: Mus musculus, read-out: ED50 (concentration giving a cell count of 50% of control)
Description: The inhibitory effect of compound (I) upon the multiplication of cells was detected using L5178Y cells (tumor cells) in RPMI 1640 medium+10% fetal calf serum for 48 hours at 37° C.
The result was expressed in the concentration of the drug giving a cell count of 50% (ED50) with the average number of cells for the control (not modicated) group on the 2nd day being taken as 100%.

[2] = test system: rat liver tRNA-guanine transglycosidase; assay: Intake of compound into tRNA (tRNA-guanine transglycosidase, [3H]guanine-labeled tRNA); format: biochemical; conditions: 0.02 OD260 of compound, 0.5 unit enzyme, 100 μl, 37° C., 17 hrs
Description: Intake of the compound of Example 1 into tRNA [^3 H]guanine-labeled tRNA* (8000 cpm), 70 mM Trishydrochloride, 60 mM magnesium chloride, 0.5 unit of rat liver tRNA-guanine transglycosidase and 0.02 OD260 of the compound of Example 1 were adjusted to 100 μl and reacted at 37° C. for 17 hrs. The reaction mixture was absorbed into a strip of Whatman 3 MM filter paper and washed three times with a 5% aqueous solution of trichloroacetic acid, once each with ethanol-ether (1:1) and ether. After drying, the paper strip was scanned with a toluenic scintillant.
* tRNA labeled with [^3 H] guanine in the first letter of its anticodon.
The 0.02 OD260 equivalent of the compound of Example 3 was adjusted to 100 μl and subjected to the same procedure as Experimental Example 1.

[3] = test system: tRNA in the tumor cells (S-180 cancer-bearing mice); assay: Intake of the radioactive compound into a tumor tissue (tRNA of tumor cells of S-180 cancer-bearing mice); format: in vivo; conditions: 100 mg (0.17 mCi)/kg, tail vein once, 24 hours after administration, S-180 i.p. ddN mice
Description: Intake of the radioactive compound of Example 2 into a tumor tissue
Using S-180 cancer-bearing mice (ddN mice, 10^7 tumor cells/mouse as transplanted i.p.), 100 mg (0.17 mCi)/kg of the radioactive compound of Example 2 was administered into the tail vein once. Twenty-four hours after administration, the animal was sacrificed and the tumor cells were taken out and the rate of takeup of the radioactive compound into tRNA in the tumor cells was determined. […] [Experimental method: N. Okada et al., Biochem., 19, 395 (1980)]

Structure (SMILES) | IC50 [1] | taken into tRNA [2] | rate of takeup of the radioactive compound into tRNA in the tumor cells (tRNA substituted) [3] | ED50 (concentration giving a cell count of 50% of control) [1]
N=C(NCc1c[nH]c2nc(N)[nH]c(=O)c12)c1cc(I)c(O)c(I)c1 [Example 1, 2-amino-5-[α-(3,5-diiodo-4-hydroxy)phenyliminomethylamino]methylpyrrolo[2,3-d]pyrimidin-4-one] | 20 µg/mL (≈ 36.4 µM) | 59% |  | 
N=C(NCc1c[nH]c2nc(N)[nH]c(=O)c12)c1cc(I)c(O)c(I)c1 [Example 2, radioactive 2-amino-5-[α-(3,5-diiodo-4-hydroxy)phenyliminomethylamino]methylpyrrolo[2,3-d]pyrimidin-4-one] |  |  | ~100% | 
Nc1nc2[nH]cc(CNCc3ccc(I)cc3)c2c(=O)[nH]1 [Example 3, 2-amino-5-(p-iodobenzyl)aminomethylpyrrolo[2,3-d]pyrimidin-4-one] | 35 µg/mL (≈ 88.6 µM) | 93% |  | 
Nc1nc2[nH]cc(CN[C@H]3C=C[C@H](O)[C@@H]3O)c2c(=O)[nH]1 [Q base, reference compound] |  |  |  | > 200 µg/mL
